Measurements as given in US6274715A, “Tricyclic erythromycin derivatives” (priority 1997, dated 2001).
Values after ≈ are worked out from the molar mass of the structure shown.

Experiments:
Type in all cases: cell-based
[1] = tested on: STREPTOCOCCUS PYOGENES PIU 2548; assay: In vitro antibacterial activity, MIC, BHI agar dilution; settings: S. pyogenes PIU 2548, unit assumed
[2] = tested on: PSEUDOMONAS AERUGINOSA DPHD-5263; assay: as above; settings: P. aeruginosa DPHD-5263, unit assumed
[3] = tested on: KLEBSIELLA PNEUMONIAE ATCC 8045; assay: as above; settings: K. pneumoniae ATCC 8045, unit assumed
[4] = tested on: STREPTOCOCCUS BOVIS A-5169; assay: as above; settings: S. bovis A-5169, unit assumed
[5] = tested on: STAPHYLOCOCCUS AUREUS A5177; assay: as above; settings: S. aureus A5177, unit assumed
[6] = tested on: PSEUDOMONAS AERUGINOSA BMH10; assay: as above; settings: P. aeruginosa BMH10, unit assumed
[7] = tested on: STAPHYLOCOCCUS AUREUS A-5278; assay: as above; settings: S. aureus A-5278, unit assumed
[8] = tested on: MYCOBACTERIUM SMEGMATIS ATCC 114; assay: as above; settings: M. smegmatis ATCC 114, unit assumed
[9] = tested on: PSEUDOMONAS AERUGINOSA 5007; assay: as above; settings: P. aeruginosa 5007, unit assumed
ESCHERICHIA COLI SS = assay: as above; settings: E. coli SS, unit assumed
[10] = tested on: STAPHYLOCOCCUS AUREUS 1775; assay: as above; settings: S. aureus 1775, unit assumed
[11] = tested on: PSEUDOMONAS AERUGINOSA K799/WT; assay: as above; settings: P. aeruginosa K799/WT, unit assumed
[12] = tested on: ENTEROBACTER AEROGENES ATCC 13048; assay: as above; settings: E. aerogenes ATCC 13048, unit assumed
[13] = tested on: PSEUDOMONAS AERUGINOSA DPHD-2862; assay: as above; settings: P. aeruginosa DPHD-2862, unit assumed
EN[…] ATCC 8043 = assay: as above; settings: E. faecium ATCC 8043, unit assumed
Outline: (§1)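 Twelve successive aqueous dilutions of compound in Brain Heart Infusion agar were inoculated with 1:100 culture dilutions (1:10 for slow growers such as Micrococcus, Streptococcus) by Steers replicator and incubated at 35-37° C for 20 to 24 hours. MIC was the lowest concentration giving no growth, slight haze or sparse colonies versus drug-free control.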

STR[…] 508 = assay: as above; settings: S. agalactiae CMX 508, unit assumed
Outline: as §1

M[…] ATCC 9341 = assay: as above; settings: M. luteus ATCC 9341, unit assumed
Outline: as §1

M[…] ATCC 4698 = assay: as above; settings: M. luteus ATCC 4698, unit assumed
Outline: as §1

ESCHERICHIA COLI H560 = assay: as above; settings: E. coli H560, unit assumed
[14] = tested on: STAPHYLOCOCCUS EPIDERMIDIS 3519; settings: S. epidermidis 3519; BHI agar; unit assumed
[15] = tested on: STAPHYLOCOCCUS AUREUS ATCC 6538P; assay: In vitro antibacterial activity, MIC, BHI agar dilution; settings: S. aureus ATCC 6538P, 35-37° C., 20 to 24 hours, unit assumed
[16] = tested on: STAPHYLOCOCCUS AUREUS CMX 642A; assay: as above; settings: S. aureus CMX 642A, unit assumed
CANDIDA ALBICANS CCH 442 = assay: as above; settings: C. albicans CCH 442, unit assumed
ESCHERICHIA COLI JUHL = settings: E. coli JUHL; BHI agar; unit assumed
[17] = tested on: STREPTOCOCCUS PYOGENES EES61; assay: In vitro antibacterial activity, MIC, BHI agar dilution; settings: S. pyogenes EES61, unit assumed
[18] = tested on: PROVIDENCIA STUARTII CMX 640; settings: P. stuartii CMX 640; BHI agar; unit assumed
[19] = tested on: PSEUDOMONAS AERUGINOSA K799/61; assay: In vitro antibacterial activity, MIC, BHI agar dilution; settings: P. aeruginosa K799/61, unit assumed
PSEUDOMONAS CEPACIA 296I = assay: as above; settings: P. cepacia 296I, unit assumed
ESCHERICHIA COLI DC-2 = assay: as above; settings: E. coli DC-2, unit assumed
[20] = tested on: STAPHYLOCOCCUS AUREUS NCTC10649M; assay: as above; settings: S. aureus NCTC10649M, unit assumed
[21] = tested on: STAPHYLOCOCCUS AUREUS CMX 553; assay: as above; settings: S. aureus CMX 553, unit assumed
ESCHERICHIA COLI KNK 437 = settings: E. coli KNK 437; BHI agar; unit assumed
[22] = tested on: STREPTOCOCCUS PYOGENES 930; assay: In vitro antibacterial activity, MIC, BHI agar dilution; settings: S. pyogenes 930, unit assumed

## CC[C@H]1OC(=O)[C@H](C)C(=O)[C@H](C)[C@@H](O[C@@H]2O[C@H](C)C[C@H](N(C)C)[C@H]2O)[C@](C)(OC)C[C@@H](C)C2=NC3CCCC3N3C(=O)O[C@@]1(C)[C@H]3[C@H]2C (stereo partly drawn) [Example 107]
[1]
  MIC: 0.39 µg/mL (≈ 0.575 µM)
[2]
  MIC: > 100 µg/mL
[3]
  MIC: > 100 µg/mL
[4]
  MIC: 0.01 µg/mL (≈ 0.0148 µM)
[5]
  MIC: 0.78 µg/mL (≈ 1.15 µM)
[6]
  MIC: > 100 µg/mL
[7]
  MIC: > 100 µg/mL
[8]
  MIC: 1.56 µg/mL (≈ 2.3 µM)
[9]
  MIC: > 100 µg/mL
ESCHERICHIA COLI SS
  MIC: 0.39 µg/mL (≈ 0.575 µM)
[10]
  MIC: > 100 µg/mL
[11]
  MIC: > 100 µg/mL
[12]
  MIC: > 100 µg/mL
[13]
  MIC: > 100 µg/mL
EN[…] ATCC 8043
  MIC: 0.1 µg/mL (≈ 0.148 µM)
STR[…] 508
  MIC: 0.02 µg/mL (≈ 0.0295 µM)
M[…] ATCC 9341
  MIC: 0.05 µg/mL (≈ 0.0738 µM)
M[…] ATCC 4698
  MIC: 0.39 µg/mL (≈ 0.575 µM)
ESCHERICHIA COLI H560
  MIC: 50 µg/mL (≈ 73.8 µM)
[14]
  MIC: 0.78 µg/mL (≈ 1.15 µM)
[15]
  MIC: 0.78 µg/mL (≈ 1.15 µM)
[16]
  MIC: 0.78 µg/mL (≈ 1.15 µM)
CANDIDA ALBICANS CCH 442
  MIC: > 100 µg/mL
ESCHERICHIA COLI JUHL
  MIC: > 100 µg/mL
[17]
  MIC: 0.02 µg/mL (≈ 0.0295 µM)
[18]
  MIC: > 100 µg/mL
[19]
  MIC: 6.2 µg/mL (≈ 9.15 µM)
PSEUDOMONAS CEPACIA 296I
  MIC: > 100 µg/mL
ESCHERICHIA COLI DC-2
  MIC: > 100 µg/mL
[20]
  MIC: 0.78 µg/mL (≈ 1.15 µM)
[21]
  MIC: 0.78 µg/mL (≈ 1.15 µM)
ESCHERICHIA COLI KNK 437
  MIC: > 100 µg/mL
[22]
  MIC: > 100 µg/mL

## CC[C@H]1OC(=O)[C@H](C)C(=O)[C@H](C)[C@@H](O[C@@H]2O[C@H](C)C[C@H](N(C)C)[C@H]2O)[C@](C)(OC)C[C@@H](C)C2=NC3CNCC3N3C(=O)O[C@@]1(C)[C@H]3[C@H]2C (stereo partly drawn) [Example 109]
[1]
  MIC: 0.78 µg/mL (≈ 1.15 µM)
[2]
  MIC: > 100 µg/mL
[3]
  MIC: 25 µg/mL (≈ 36.8 µM)
[4]
  MIC: 0.05 µg/mL (≈ 0.0737 µM)
[5]
  MIC: 0.39 µg/mL (≈ 0.574 µM)
[6]
  MIC: 50 µg/mL (≈ 73.7 µM)
[7]
  MIC: > 100 µg/mL
[8]
  MIC: 3.1 µg/mL (≈ 4.57 µM)
[9]
  MIC: > 100 µg/mL
ESCHERICHIA COLI SS
  MIC: 0.2 µg/mL (≈ 0.295 µM)
[10]
  MIC: > 100 µg/mL
[11]
  MIC: > 100 µg/mL
[12]
  MIC: 25 µg/mL (≈ 36.8 µM)
[13]
  MIC: > 100 µg/mL
EN[…] ATCC 8043
  MIC: 0.1 µg/mL (≈ 0.147 µM)
STR[…] 508
  MIC: 0.1 µg/mL (≈ 0.147 µM)
M[…] ATCC 9341
  MIC: 0.05 µg/mL (≈ 0.0737 µM)
M[…] ATCC 4698
  MIC: 0.2 µg/mL (≈ 0.295 µM)
ESCHERICHIA COLI H560
  MIC: 6.2 µg/mL (≈ 9.13 µM)
[14]
  MIC: 0.39 µg/mL (≈ 0.574 µM)
[15]
  MIC: 0.39 µg/mL (≈ 0.574 µM)
[16]
  MIC: 0.39 µg/mL (≈ 0.574 µM)
CANDIDA ALBICANS CCH 442
  MIC: > 100 µg/mL
ESCHERICHIA COLI JUHL
  MIC: 25 µg/mL (≈ 36.8 µM)
[17]
  MIC: 0.05 µg/mL (≈ 0.0737 µM)
[18]
  MIC: > 100 µg/mL
[19]
  MIC: 0.39 µg/mL (≈ 0.574 µM)
PSEUDOMONAS CEPACIA 296I
  MIC: > 100 µg/mL
ESCHERICHIA COLI DC-2
  MIC: 12.5 µg/mL (≈ 18.4 µM)
[20]
  MIC: 0.39 µg/mL (≈ 0.574 µM)
[21]
  MIC: 0.78 µg/mL (≈ 1.15 µM)
ESCHERICHIA COLI KNK 437
  MIC: 25 µg/mL (≈ 36.8 µM)
[22]
  MIC: > 100 µg/mL
